Drawing on US9994555B2, “Chromenone inhibitors of monocarboxylate transporters” (THE SCRIPPS RESEARCH INSTITUTE, priority 2015, dated 2018), this text covers EC50 for 12 compounds.

This assay relates to Raji (Burkitt's) lymphoma cells. In words: MTT assay for 4-day viability of Raji (Burkitt's) lymphoma cells. Type of assay: cell-based. To be noted: Homo sapiens, 96 h, Raji (Burkitt's) lymphoma cells highly expressing MCT1, estimated EC50 given as bin, read-out: approximate potency (EC50). The text has this:
Specific Examples of compounds of the invention, with estimated EC50 values determined using an MTT assay for 4-day viability of Raji (Burkitt's) lymphoma cells, a cell line known to highly express MCT1 and to be sensitive to small molecule MCT inhibitors,^4 are shown in Table 8. Assay protocols follow those described in the literature.^4 Other assays that are not described here but that are standard in the field, such as an assay for competitive inhibition of transport of radiolabeled lactic acid, an MCT substrate, may also be useful in establishing mechanism of action of these compounds.

Structures are written as SMILES. Where only a bound is given, the exact number is not on record here.

On to `CC(C)c1cc(=O)c2c(-c3cc(CO)ccc3Cl)cc(OCc3cccc4ccccc34)cc2o1` [Example 39, 5-(2-chloro-5-(hydroxymethyl)phenyl)-2-isopropyl-7-(naphthalen-1-ylmethoxy)-4H-chromen-4-one], for which the EC50 was 1 to 10 µM.

For `CC(C)c1cc(=O)c2c(-c3cc(CO)ccc3F)cc(OCc3cccc4ccccc34)cc2o1` [Example 40, 5-(2-fluoro-5-(hydroxymethyl)phenyl)-2-isopropyl-7-(naphthalen-1-ylmethoxy)-4H-chromen-4-one], the concentration giving a half-maximal response (EC50) was 1 to 10 µM.

For the compound `CC(C)c1cc(=O)c2c(-c3cccc(CO)c3F)cc(OCc3cccc4ccccc34)cc2o1` [Example 41, 5-(2-fluoro-3-(hydroxymethyl)phenyl)-2-isopropyl-7-(naphthalen-1-ylmethoxy)-4H-chromen-4-one], the EC50 was ≥ 10 µM.

Turning to `CC(C)c1cc(=O)c2c(-c3cccc(CO)c3)cc(Oc3ccnc4ccccc34)cc2o1` [Example 42, 5-(3-(hydroxymethyl)phenyl)-2-isopropyl-7-(quinolin-4-yloxy)-4H-chromen-4-one], the EC50 is 0.1 to 1 µM.

`CC(C)c1cc(=O)c2c(-c3cccc(CO)c3)cc(OCc3cccc4ccccc34)cc2o1` [Example 43, 5-(3-(hydroxymethyl)phenyl)-2-isopropyl-7-(naphthalen-1-ylmethoxy)-4H-chromen-4-one]: the EC50 is 0.1 to 1 µM.

For `CC(C)c1cc(=O)c2c(-c3ccccc3CO)cc(OCc3cccc4ccccc34)cc2o1` [Example 44], the EC50 is ≥ 10 µM.

`CC(C)c1cc(=O)c2c(-c3ccc(CO)cc3)cc(OCc3cccc4ccccc34)cc2o1` [Example 45]: the EC50 was 1 to 10 µM.

Consider `CC(C)c1cc(=O)c2c(NCCCCO)cc(OCc3cccc4ccccc34)cc2o1` [Example 46, 5-((4-hydroxybutyl)amino)-2-isopropyl-7-(naphthalen-1-ylmethoxy)-4H-chromen-4-one], for which the EC50 was 1 to 10 µM.

As for `CC(C)c1cc(=O)c2c(NCCCCCO)cc(OCc3cccc4ccccc34)cc2o1` [Example 47, 5-((5-hydroxypentyl)amino)-2-isopropyl-7-(naphthalen-1-ylmethoxy)-4H-chromen-4-one], the EC50 was ≥ 10 µM.

Turning to `CC(C)c1cc(=O)c2c(NCCCO)cc(OCc3cccc4ccccc34)cc2o1` [Example 48, 5-((3-hydroxypropyl)amino)-2-isopropyl-7-(naphthalen-1-ylmethoxy)-4H-chromen-4-one], the EC50 is 1 to 10 µM.

Consider `CC(C)c1cc(=O)c2c(Nc3cccc(CO)c3)cc(OCc3cccc4ccccc34)cc2o1` [Example 49, 5-((3-(hydroxymethyl)phenyl)amino)-2-isopropyl-7-(naphthalen-1-ylmethoxy)-4H-chromen-4-one], for which the EC50 is ≥ 10 µM.

For `CC(C)c1cc(=O)c2c(N3CCC(CO)CC3)cc(OCc3cccc4ccccc34)cc2o1` [Example 50, 5-(4-(hydroxymethyl)piperidin-1-yl)-2-isopropyl-7-(naphthalen-1-ylmethoxy)-4H-chromen-4-one], the EC50 was 1 to 10 µM.
